Experimental data as given in patent US10952992B2, “Methods of treating intraocular pressure with activators of Tie-2” (Aerpio Pharmaceuticals, Inc., priority 2015, dated 2021).

Tested on: intraocular pressure, study eye/fellow eye
Experiment: Intraocular pressure with Compound 1 + sham, Compound 1 + RBZ or placebo + RBZ, months 1-3 (FIG. 2, TABLE 1)
Format: in vivo, human
Experimental: The difference in IOP was determined relative to a pre-treatment baseline (Base) at months 1, 2, and 3 (M1-M3). Intraocular pressure was determined in the study eye in millimeters of mercury (mmHg). […] The difference in IOP was determined relative to a pre-treatment Baseline at Months 1, 2, and 3. Intraocular pressure was determined in the study eye/fellow eye in mmHg.

In the case of “placebo + RBZ: a placebo combined with RBZ (ranibizumab)”, the “IOP, fellow eye” value (Baseline (pre-treatment)) is reported as 15.8 mmHg, the “IOP, study eye” value (Baseline (pre-treatment)) is reported as 15.2 mmHg and the “IOP, fellow eye” value (Month 1) is reported as 15.5 mmHg. For the same substance, the “IOP, study eye” value (Month 1) was 15.0 mmHg, the “IOP, fellow eye” value (Month 2) was 15.5 mmHg and the “IOP, study eye” value (Month 2) was 15.0 mmHg. The “IOP, fellow eye” value (Month 3) was 15.7 mmHg and the “IOP, study eye” value (Month 3) was 15.3 mmHg.
